# From patent US20230416205A1, “COMPOUNDS, COMPOSITIONS, AND METHODS” (Denali Therapeutics Inc, priority 2020, published 2023)
# Where two headings read alike, the source gives them in different places.
# System: NLRP3
# Assay: IL-1β secretion assay in PMA-differentiated, LPS/nigericin-stimulated THP-1 cells (384-well, ELISA read-out)
# Assay type: cell-based, human
# Procedure: Compounds as provided herein were tested in the following assay. Cell culture medium employed contained RPMI 1640 medium (89%), FBS (10%), Pen/Strep (1%), and 2-mercaptoethanol (0.05 mM). Freezing medium was made up of 90% FBS and 10% DMSO. THP-1 cells were removed from the liquid nitrogen and placed into a 37° C. water bath to thaw, until signs of ice dissipated. The cells were then added to 9 mL of warm cell culture medium and centrifuged for 5 minutes at 1000 rpm. The supernatant was discarded, and the cells were resuspended in new cell culture medium. THP-1 cells were then split and cultured in the cell culture medium, being passaged every 2-3 days with the cell density will be maintained between 5×10^5 and 1.5×10^6 viable cells/mL.
# To freeze, cells were resuspended with fresh freezing medium, adjusting the cell density to 5×10^6 cells/mL. The cell suspension was partitioned into 1 mL aliquots per vial, and the vials were transferred to a −80° C. freezer. After one day at −80° C., the cell vials were transferred to liquid nitrogen freezer for storage.
# PMA was dissolved in DMSO to make a stock solution at 5 mg/mL and stored in 10 μl aliquots at −20° C. for single use. PMA is added to normal growth medium. LPS was diluted with 1 mL of water solution to provide a 1 mg/mL stock solution and stored in 15 μl aliquots at −20° C. for single use. Nigericin is diluted in ice cold 100% ethanol to 5 mg/mL (6.7 mM) and stored in 75 μL aliquots at −20° C. for single use. Serum-free media contains RPMI 1640 medium (99%), Pen/Strep (1%), and 2-mercaptoethanol (0.05 mM). The two control conditions used to qualify and normalize test compound dose-response curves were as follows: High Control=25 ng/mL LPS, 5 μM Nigericin, 0.5% DMSO, Low Control=25 ng/mL, LPS, 0.5% DMSO.
# THP-1 cells were diluted to provide a suspension at a concentration of 1.0×10^6 cells/mL with the total volume of suspension required to enable the desired number of assay plates. The growth media was supplemented with PMA (5 ng/mL final concentration) and the cells were incubated at 37° C. under a humidified atmosphere of 5% CO2 for 40 h.
# All media was carefully aspirated from each culture flask. The cells were washed carefully with 1×DPBS. The cells were then briefly digested with trypsin LE for 5 minutes at 23° C., and immediately resuspended in cell growth media. After resuspension, the cells were centrifuged at 1000 rpm for 3 minutes and the supernatant was discarded. The cells were resuspended in DPBS and once again centrifuged at 1000 rpm for 5 minutes. The supernatant was discarded and the cell pellet was resuspended in serum-free media supplemented with LPS (25 ng/mL final concentration) to enable the distribution of 30K THP-1 cells within 45 μL of media into each well of 384-well PDL-coated plates. The 384-well plates were then incubated at 37° C. under a humidified atmosphere of 5% CO2 for 2 h. Following this period, test compounds were dispensed by Tecan across the desired concentration range with all wells normalized to a final 0.5% DMSO concentration. The plates were then incubated at 37° C. under a humidified atmosphere of 5% CO2 for 1 h. Following this period, 5 μL of the […] was added to each of the appropriate wells and plates were centrifuged at 1000 rpm for 30 seconds. The plates were the immediately reintroduced to the incubator at 37° C. under a humidified atmosphere of 5% CO2 for 2 h. After this time, 35 μL/well of supernatant was collected and transferred into v-bottom plate and centrifuged at 1000 rpm for 1 minute. These supernatant aliquots were analyzed using an IL-Iβ detection kit as described below. If needed, the test samples could be snap frozen and stored at −80° C. until analyzed.
# To prepare each ELISA plate, capture antibody (mAb Mt175) was diluted with PBS to a final concentration of 2 μg/mL and then 20 μL of this solution was added to each well of the ELISA plate. Each plate was allowed to incubate overnight at 4° C.
# [1] = Homo sapiens, THP-1, IL-1β secretion, PMA-differentiated THP-1 cells, LPS then nigericin stimulation, ELISA read at 450 nm, read-out: Activity
# [2] = Table 4, IL-1β secretion, LPS/nigericin-stimulated THP-1 cells, read-out: IC50
# [3] = IL-1β secretion, PMA-differentiated THP-1 cells, LPS then nigericin stimulation, ELISA read at 450 nm, read-out: Activity
# [4] = Homo sapiens, THP-1, Table 4, IL-1β secretion, LPS/nigericin-stimulated THP-1 cells, read-out: IC50
SMILES,IC50 [1] [nM],IC50 [2] [nM],IC50 [3] [nM],IC50 [4] [nM]
"O=C(CN1C[C@@]2(C[C@@H]2F)c2cc(C(F)(F)F)ccc2C1=O)Nc1ncccn1 (single isomer, unassigned) [Example 240, 2-[(2′s,4r)-2′-fluoro-1-oxo-6-(trifluoromethyl)spiro[3H-isoquinoline-4,1′-cyclopropane]-2-yl]-N-pyrimidin-2-ylacetamide]",< 10000,1220,–,–
"O=C(CN1C[C@@]2(C[C@@H]2F)c2cc(C(F)(F)F)ccc2C1=O)Nc1ncccn1 (single isomer, unassigned) [Example 241, 2-[(2′s,4r)-2′-fluoro-1-oxo-6-(trifluoromethyl)spiro[3H-isoquinoline-4,1′-cyclopropane]-2-yl]-N-pyrimidin-2-ylacetamide]",–,134,< 10000,–
"O=C(CN1C[C@@]2(C[C@@H]2F)c2cc(C(F)(F)F)ccc2C1=O)Nc1ncc(C(F)(F)F)cn1 (single isomer, unassigned) [Example 242, 2-[(2′s,4r)-2′-fluoro-1-oxo-6-(trifluoromethyl)spiro[3H-isoquinoline-4,1′-cyclopropane]-2-yl]-N-[5-(trifluoromethyl)pyrimidin-2-yl]acetamide]",< 10000,1290,–,–
"O=C(CN1C[C@@]2(C[C@@H]2F)c2cc(C(F)(F)F)ccc2C1=O)Nc1ncc(C(F)(F)F)cn1 (single isomer, unassigned) [Example 243, 2-[(2′s,4r)-2′-fluoro-1-oxo-6-(trifluoromethyl)spiro[3H-isoquinoline-4,1′-cyclopropane]-2-yl]-N-[5-(trifluoromethyl)pyrimidin-2-yl]acetamide]",–,95,< 10000,–
"Cc1cnc(NC(=O)CN2C[C@@]3(C[C@@H]3F)c3cc(C(F)(F)F)ccc3C2=O)nc1 (single isomer, unassigned) [Example 244, 2-[(2′s,4r)-2′-fluoro-1-oxo-6-(trifluoromethyl)spiro[3H-isoquinoline-4,1′-cyclopropane]-2-yl]-N-(5-methylpyrimidin-2-yl)acetamide]",< 10000,75,–,–
"Cc1cnc(NC(=O)CN2C[C@@]3(C[C@@H]3F)c3cc(C(F)(F)F)ccc3C2=O)nc1 (single isomer, unassigned) [Example 245, 2-[(2′s,4r)-2′-fluoro-1-oxo-6-(trifluoromethyl)spiro[3H-isoquinoline-4,1′-cyclopropane]-2-yl]-N-(5-methylpyrimidin-2-yl)acetamide]",–,938,< 10000,–
"O=C(CN1CC2(CC2)c2cc([C@@]3(F)C[C@@H]3F)ccc2C1=O)Nc1ncc(F)cn1 (single isomer, unassigned) [Example 251, 2-[6-[(1r,2r)-1,2-difluorocyclopropyl]-1-oxospiro[3H-isoquinoline-4,1′-cyclopropane]-2-yl]-N-(5-fluoropyrimidin-2-yl)acetamide]",< 10000,–,–,550
"O=C(CN1CC2(CC2)c2cc([C@@]3(F)C[C@@H]3F)ccc2C1=O)Nc1ncc(F)cn1 (single isomer, unassigned) [Example 252, 2-[6-[(1r,2r)-1,2-difluorocyclopropyl]-1-oxospiro[3H-isoquinoline-4,1′-cyclopropane]-2-yl]-N-(5-fluoropyrimidin-2-yl)acetamide]",–,454,< 10000,–
"O=C(CN1CC2(CC2)c2cc([C@@]3(F)C[C@H]3F)ccc2C1=O)Nc1ncc(F)cn1 (single isomer, unassigned) [Example 253, 2-[6-[(1r,2s)-1,2-difluorocyclopropyl]-1-oxospiro[3H-isoquinoline-4,1′-cyclopropane]-2-yl]-N-(5-fluoropyrimidin-2-yl)acetamide]",< 10000,–,–,597
"O=C(CN1CC2(CC2)c2cc([C@@]3(F)C[C@H]3F)ccc2C1=O)Nc1ncc(F)cn1 (single isomer, unassigned) [Example 254, 2-[6-[(1r,2s)-1,2-difluorocyclopropyl]-1-oxospiro[3H-isoquinoline-4,1′-cyclopropane]-2-yl]-N-(5-fluoropyrimidin-2-yl)acetamide]",–,434,< 10000,–
